Measured values as given in patent publication US4468511A, “C-20- And C-23-Modified macrolide derivatives” (Eli Lilly and Company, priority 1983, dated 1984).
≈ marks a conversion by molar mass, not a printed value. Where two headings read alike, the source gives them in different places.

Legend:
[1] = test system: Mycoplasma gallisepticum 41313; assay: MIC, conventional broth-dilution microtiter test; assay type: cell-based; settings: Mycoplasmoides gallisepticum; broth-dilution microtiter; Mycoplasma gallisepticum 41313, Resistant strain; read-out: MIC
Method in brief: (§1)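 MICs for the two Pasteurella strains and the Mycoplasma strain were read from a broth-dilution microtiter test. The Klebsiella strain was tested on agar instead.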

[2] = test system: Staphylococcus aureus; assay: MIC, conventional broth-dilution microtiter test; assay type: cell-based
Protocol: (§2) Certain of the derivatives are active against some gram-negative bacteria, such as Pasteurella species. The MIC's in Table II were determined by standard agar-dilution assays. The MIC's in Table III were obtained using a conventional broth-dilution microtiter test.

[3] = test system: Mycoplasma synoviae; assay: MIC, conventional broth-dilution microtiter test; assay type: cell-based; settings: Mycoplasmopsis synoviae
Method in brief: (§3)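 Two formats were used. Broth dilution in microtiter plates served for Pasteurella and Mycoplasma, while agar dilution served for Klebsiella.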

[4] = test system: Pasteurella multocida 60A; assay: MIC, conventional broth-dilution microtiter test; assay type: cell-based; settings: broth-dilution microtiter; Pasteurella multocida 60A, Avian isolate; read-out: MIC
Method in brief: as §1

[5] = test system: Pasteurella hemolytica 22C; assay: MIC, conventional broth-dilution microtiter test; assay type: cell-based; settings: broth-dilution microtiter; Pasteurella hemolytica 22C; read-out: MIC
Method in brief: as §1

[6] = test system: Pasteurella multocida 22A; assay: MIC, conventional broth-dilution microtiter test; assay type: cell-based; settings: broth-dilution microtiter; Pasteurella multocida 22A; read-out: MIC
Method in brief: as §1

[7] = test system: Mycoplasma hyorhinis; assay: MIC, conventional broth-dilution microtiter test; assay type: cell-based; settings: broth-dilution microtiter; Mycoplasma hyorhinis; read-out: MIC
Method in brief: as §3

[8] = test system: Mycoplasma gallisepticum; assay: MIC, conventional broth-dilution microtiter test; assay type: cell-based; settings: Mycoplasmoides gallisepticum
Method in brief: as §1

[9] = test system: Pasteurella hemolytica 41D; assay: MIC, conventional broth-dilution microtiter test; assay type: cell-based; settings: broth-dilution microtiter; Pasteurella hemolytica 41D; read-out: MIC
Method in brief: as §1

[10] = test system: Mycoplasma gallisepticum 34159; assay: MIC, conventional broth-dilution microtiter test; assay type: cell-based; settings: Mycoplasmoides gallisepticum; broth-dilution microtiter; Mycoplasma gallisepticum 34159, Resistant strain; read-out: MIC
Method in brief: as §1

[11] = test system: Streptococcus sp. 80; assay: MIC, conventional broth-dilution microtiter test; assay type: cell-based
Protocol: as §2

[12] = test system: Pasteurella hemolytica 23C; assay: MIC, conventional broth-dilution microtiter test; assay type: cell-based; settings: broth-dilution microtiter; Pasteurella hemolytica 23C; read-out: MIC
Method in brief: as §1

[13] = test system: Pasteurella multocida 40G; assay: MIC, conventional broth-dilution microtiter test; assay type: cell-based; settings: broth-dilution microtiter; Pasteurella multocida 40G; read-out: MIC
Method in brief: as §1

[14] = test system: Pasteurella multocida 17E; assay: MIC, conventional broth-dilution microtiter test; assay type: cell-based; settings: broth-dilution microtiter; Pasteurella multocida 17E, Bovine isolate; read-out: MIC
Method in brief: as §1

[15] = test system: Pasteurella multocida 68C; assay: MIC, conventional broth-dilution microtiter test; assay type: cell-based; settings: broth-dilution microtiter; Pasteurella multocida 68C; read-out: MIC
Method in brief: as §1

[16] = test system: Haemophilus influenzae C.L.; assay: MIC, standard agar-dilution assay; assay type: cell-based
Protocol: (§4) The MIC's in Table II were determined by standard agar-dilution assays. The MIC's in Table III were obtained using a conventional broth-dilution microtiter test.

[17] = test system: Haemophilus influenzae 76; assay: MIC, standard agar-dilution assay; assay type: cell-based
Protocol: as §4

[18] = test system: Staphylococcus epidermidis EPI2; assay: MIC, standard agar-dilution assay; assay type: cell-based; settings: Staphylococcus epidermidis, EPI2
Protocol: as §4

[19] = test system: Staphylococcus aureus X400; assay: MIC, standard agar-dilution assay; assay type: cell-based
Protocol: as §4

[20] = test system: Staphylococcus aureus S13E; assay: microbe, parasite or virus in culture; assay type: cell-based
Protocol: as §4

[21] = test system: Staphylococcus epidermidis EPI1; assay: microbe, parasite or virus in culture; assay type: cell-based
Protocol: as §4

[22] = test system: Klebsiella pneumoniae X26; assay: MIC, standard agar-dilution assay; assay type: cell-based
Method in brief: as §3

[23] = test system: Streptococcus pyogenes 9960; assay: MIC, standard agar-dilution assay; assay type: cell-based
Protocol: as §2

[24] = test system: Streptococcus pneumoniae Park I; assay: MIC, standard agar-dilution assay; assay type: cell-based; settings: Streptococcus pneumoniae
Protocol: as §2

[25] = test system: Streptococcus Group D X66; assay: MIC, standard agar-dilution assay; assay type: cell-based; settings: agar-dilution; Streptococcus Group D X66; read-out: MIC
Protocol: as §2

[26] = test system: Staphylococcus aureus X1.1; assay: MIC, standard agar-dilution assay; assay type: cell-based; settings: Staphylococcus aureus, X1.1
Method in brief: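 A standard agar-dilution assay was used to test compounds against the Staphylococcus aureus isolate X1.1. Bacterial growth on agar with different compound concentrations was assessed, and the minimum inhibitory concentration was recorded in ug/mL.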

[27] = test system: Escherichia coli EC14; assay: MIC, standard agar-dilution assay; assay type: cell-based; settings: agar-dilution; Escherichia coli EC14; read-out: MIC
Protocol: as §2

[28] = test system: Staphylococcus aureus V41; assay: MIC, standard agar-dilution assay; assay type: cell-based
Protocol: as §2

[29] = test system: Klebsiella pneumoniae KAE; assay: MIC, standard agar-dilution assay; assay type: cell-based; settings: agar-dilution; Klebsiella pneumoniae KAE; read-out: MIC
Method in brief: as §1

[30] = test system: Escherichia coli TEM; assay: MIC, standard agar-dilution assay; assay type: cell-based; settings: agar-dilution; Escherichia coli TEM; read-out: MIC
Method in brief: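 Antibacterial activity toward the gram-negative organism Escherichia coli was assessed by conventional agar dilution. The MIC, reported in ug/mL, is the minimum compound concentration on agar that prevents growth.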

[31] = test system: Streptococcus pyogenes C203; assay: MIC, standard agar-dilution assay; assay type: cell-based
Protocol: as §2

[32] = test system: Streptococcus pyogenes C203; assay: Protection of mice experimentally infected with S. pyogenes C203; assay type: in vivo
Protocol: Some of the derivatives of this invention have shown in vivo antimicrobial activity against experimentally-induced infections in laboratory animals. When two doses of test compound were administered to mice experimentally infected with S. pyogenes C203, the activity observed was measured as an ED50 value [effective dose in mg/kg to protect 50% of the test animals: see Warren Wick, et al., J. Bacteriol. 81, 233-235 (1961)].

[33] = C203, mice, oral, mg/kg × 2, doses given 1 and 4 hours postinfection, read-out: ED50 Oral

Row | Structure (SMILES) | MIC [1] [µg/mL] | MIC [4] [µg/mL] | MIC [5] [µg/mL] | MIC [6] [µg/mL] | MIC [7] [µg/mL] | MIC [8] [µg/mL] | MIC [9] [µg/mL] | MIC [10] [µg/mL] | MIC [12] [µg/mL] | MIC [13] [µg/mL] | MIC [14] [µg/mL] | MIC [15] [µg/mL] | MIC [18] [µg/mL] | MIC [20] [µg/mL] | MIC [24] [µg/mL] | MIC [25] [µg/mL] | MIC [26] [µg/mL] | MIC [27] [µg/mL] | MIC [29] [µg/mL] | MIC [30] [µg/mL] | further results
1 | CCC1CC(C)C(=O)C=CC(C)=CC(CSc2ccccc2)C(CC)OC(=O)CC(O)C(C)C1OC1OC(C)C(O)C(N(C)C)C1O (stereo not drawn) [Compound 42, 23-Phenylthio-20,23-dideoxy-20-dihydro-OMT] | 25 (≈ 37 µM) | 12.5 (≈ 18.5 µM) | 25 (≈ 37 µM) | 25 (≈ 37 µM) | 25 (≈ 37 µM) | 6.25 (≈ 9.25 µM) | 25 (≈ 37 µM) | 25 (≈ 37 µM) | 25 (≈ 37 µM) | 25 (≈ 37 µM) | 25 (≈ 37 µM) | 25 (≈ 37 µM) | 1 (≈ 1.48 µM) | 1 (≈ 1.48 µM) | 0.12 (≈ 0.178 µM) | 0.5 (≈ 0.74 µM) | 1 (≈ 1.48 µM) | > 128 | > 128 | > 128 | MIC ([2]; broth-dilution microtiter, read-out: MIC): 1.56 µg/mL (≈ 2.31 µM); MIC [3]: 6.25 µg/mL (≈ 9.25 µM); MIC ([11]; broth-dilution microtiter, Streptococcus sp. 80, read-out: MIC): 1.56 µg/mL (≈ 2.31 µM); MIC ([16]; Haemophilus influenzae): 16 µg/mL (≈ 23.7 µM); MIC ([17]; Haemophilus influenzae, 76): 16 µg/mL (≈ 23.7 µM); MIC ([19]; Staphylococcus aureus, X400): 1 µg/mL (≈ 1.48 µM); MIC ([21]; agar-dilution, Staphylococcus epidermidis EPI1, read-out: MIC): 0.5 µg/mL (≈ 0.74 µM); MIC ([22]; agar-dilution, Klebsiella pneumoniae X26, read-out: MIC): 16 µg/mL (≈ 23.7 µM); MIC [23]; 9960: 1 µg/mL (≈ 1.48 µM); MIC ([28]; agar-dilution, Staphylococcus aureus V41, Penicillin-resistant strain, read-out: MIC): 0.5 µg/mL (≈ 0.74 µM); MIC ([31]; Streptococcus pyogenes, C203): 1 µg/mL (≈ 1.48 µM); ED50 [32, 33]: 78 mg/kg; ED50 ([32]; C203, sc, read-out: ED50 Subcutaneous): > 25 mg/kg
2 | CCC1CC(C)C(=O)C=CC(C)=CC(COc2cccc(N(C)C)c2)C(CC)OC(=O)CC(O)C(C)C1OC1OC(C)C(O)C(N(C)C)C1O (stereo not drawn) [Compound 44, 23-O-(m-Dimethylaminophenyl)-20-deoxy-20-dihydro-OMT] | 12.5 (≈ 17.8 µM) | 25 (≈ 35.6 µM) | > 50 | 50 (≈ 71.1 µM) | 50 (≈ 71.1 µM) | 3.12 (≈ 4.44 µM) | > 50 | 12.5 (≈ 17.8 µM) | > 50 | 25 (≈ 35.6 µM) | 50 (≈ 71.1 µM) | 25 (≈ 35.6 µM) | 0.5 (≈ 0.711 µM) | 1 (≈ 1.42 µM) | 0.5 (≈ 0.711 µM) | 2 (≈ 2.85 µM) | 1 (≈ 1.42 µM) | > 128 | > 128 | > 128 | MIC [2]: 1.56 µg/mL (≈ 2.22 µM); MIC ([3]; broth-dilution microtiter, Mycoplasma synoviae, read-out: MIC): 12.5 µg/mL (≈ 17.8 µM); MIC ([11]; Streptococcus, SP.80): 3.12 µg/mL (≈ 4.44 µM); MIC ([16]; agar-dilution, Haemophilus influenzae C.L., Ampicillin-sensitive strain, read-out: MIC): 16 µg/mL (≈ 22.8 µM); MIC ([17]; agar-dilution, Haemophilus influenzae 76, Ampicillin-resistant strain, read-out: MIC): 16 µg/mL (≈ 22.8 µM); MIC ([19]; agar-dilution, Staphylococcus aureus X400, Methicillin-resistant strain, read-out: MIC): 2 µg/mL (≈ 2.85 µM); MIC ([21]; Staphylococcus epidermidis, EPI1): 1 µg/mL (≈ 1.42 µM); MIC ([22]; Klebsiella pneumoniae, X26): 32 µg/mL (≈ 45.5 µM); MIC ([23]; agar-dilution, Streptococcus 9960, read-out: MIC): 2 µg/mL (≈ 2.85 µM); MIC ([28]; Staphylococcus aureus, V41): 1 µg/mL (≈ 1.42 µM); MIC ([31]; agar-dilution, Streptococcus pyogenes C203, read-out: MIC): 4 µg/mL (≈ 5.69 µM); ED50 [32, 33]: > 50 mg/kg; ED50 ([32]; C203, sc, mice, subcutaneous, mg/kg × 2, doses given 1 and 4 hours postinfection, read-out: ED50 Subcutaneous): > 10 mg/kg
